Publication PMC6764291 (Frontiers in Oncology, 2019)
Entries after “also recorded” stand apart in the source; their conditions may differ. Where two headings read alike, the source gives them in different places.

How the values were obtained:
UM-SCC-74B = test: XTT cell viability, UM-SCC-74B; format: cell-based, human
Procedure: (§1) The human squamous cell carcinoma cell lines UM-SCC-74A and UM-SCC-74B were kindly provided by Professor TE Carey (University of Michigan, USA) and cultured in Dulbecco's Modified Eagle Medium (DMEM) with 10% fetal bovine serum, 1% L-glutamine, 1% antibiotics (100 IU penicillin and 100 μg/ml streptomycin) as well as 1% non-essential amino acids (all from Biochrom Kg, Berlin, Germany). UT-SCC-45 (kindly provided by Dr. R. Grenman, Turku University Central Hospital, Finland) was cultured in DMEM with the abovementioned additives. HCT116 and A431 were purchased from American Type Culture Collection (Manassas, VA, USA). HCT116 was cultured in McCoy's modified Eagle medium with 10% fetal bovine serum, 1% L-glutamine and 1% antibiotics (100 IU penicillin and 100 μg/ml streptomycin) and A431 was cultured in Ham's F10 with the same additives. H314 was purchased from the European Collection of Authenticated Cell Cultures (Salisbury, UK) in DMEM/Ham's F12 (1:1) with the abovementioned additives. Cells were incubated at 37°C with 5% CO2, and cultivated for no longer than 2 months at a time.
(§2) Cells were irradiated using ^137Cs gamma-ray photons at a dose-rate of ~1 Gy/min (Best Theratronics Gammacell® 40Exactor, Springfield, USA).
(§3) Five-hundred to ten thousands cells were seeded in flat-bottomed 96-well plates and incubated for 48 h prior to irradiation with 2Gy. […] Cells were incubated at 37° for 4–5 days until 80–90% confluence had been obtained. A mix of XTT Activation Reagent and XTT Reagent was added according to the American Type Culture Collection 30–1011 K protocol (Manassas, VA, USA). Plates were incubated for up to 6 h at 37° and absorbance was measured by using a BioMark Microplate Reader (Bio-Rad Laboratories AB, Solna, Sweden).
(§4) GraphPad Prism version 6.07 (GraphPad Software, San Diego, USA) was used for data processing and analysis. p-values were determined using unpaired student's t-test for comparison between two groups or one-way ANOVA followed by Tukey's multiple comparisons test, with p < 0.05 (^*), p < 0.01 (^**), p < 0.001 (^***), and p < 0.0001 (^****). For XTT assays cell viability was normalized for irradiated and unirradiated samples separately. […] CDI ≤ 0.7 equaled significant synergistic effect, CDI ≤ 1 equaled additive effect and CDI > 1 equaled antagonistic effect ([29]).

HCT116 = test: XTT cell viability, HCT116; format: cell-based
Procedure: as §1, §2, §3, §4

H314 = test: XTT cell viability, H314; format: cell-based; conditions: n ≥ 4
Procedure: (§5) The human squamous cell carcinoma cell lines UM-SCC-74A and UM-SCC-74B were kindly provided by Professor TE Carey (University of Michigan, USA) and cultured in Dulbecco's Modified Eagle Medium (DMEM) with 10% fetal bovine serum, 1% L-glutamine, 1% antibiotics (100 IU penicillin and 100 μg/ml streptomycin) as well as 1% non-essential amino acids (all from Biochrom Kg, Berlin, Germany). UT-SCC-45 (kindly provided by Dr. R. Grenman, Turku University Central Hospital, Finland) was cultured in DMEM with the abovementioned additives. HCT116 and A431 were purchased from American Type Culture Collection (Manassas, VA, USA). […]
(§6) Five-hundred to ten thousands cells were seeded in flat-bottomed 96-well plates and incubated for 48 h prior to irradiation with 2Gy. […] Plates were incubated for up to 6 h at 37° and absorbance was measured by using a BioMark Microplate Reader (Bio-Rad Laboratories AB, Solna, Sweden).
(§7) GraphPad Prism version 6.07 (GraphPad Software, San Diego, USA) was used for data processing and analysis. p-values were determined using unpaired student's t-test for comparison between two groups or one-way ANOVA followed by Tukey's multiple comparisons test, with p < 0.05 (^*), p < 0.01 (^**), p < 0.001 (^***), and p < 0.0001 (^****). […]

UT-SCC-45 = test: XTT cell viability, UT-SCC-45; format: cell-based; conditions: n ≥ 4
Procedure: as §5, §6, §7

p53 [1] = test: Western Blot p53 expression, UM-SCC-74B; format: cell-based, human; conditions: n ≥ 3
Procedure: as §2
(§8) Whole-cell lysates were prepared according to standard protocols. Protein concentrations were measured using a DeNovix DS-11 spectrophotometer (DeNovix Inc., Wilmington, DE, USA). Samples were separated on 4–12% Bis-Tris SDS gels and transferred to a nitrocellulose membrane (ThermoFisher Scientific, Uppsala, Sweden) by wet-transfer blotting. The membrane was blocked for 1 h in PBS with 5% BSA before incubation with primary antibodies targeting p53, caspase-3, NaK-ATPase and GLB1 (DO-1 (ab1101), ab13847, ab76020 and ab128993, AbCam, Cambridge, UK) and β-actin (A5441, Sigma Aldrich Sweden, Stockholm, Sweden) at 4°C overnight. After washing with PBS with 1% Tween-20, the membrane was incubated with respective and species-specific Horse Radish Peroxidase-labeled secondary antibody (ThermoFisher Scientific, Waltham, MA, USA) and stained with electro-chemiluminescent solution (Immobilon, Millipore, Bedford, USA).

p53 [2] = test: Western Blot p53 expression, HCT116; format: cell-based; conditions: n ≥ 3
Procedure: as §2, §8

cleaved caspase-3 = test: Western Blot cleaved caspase-3 expression, HCT116; format: cell-based
Procedure: as §2, §8

Noxa [3] = test: Flow cytometry Noxa expression, UM-SCC-74B; format: cell-based, human; conditions: 20 μM PM2, 72 h
Procedure: as §2
(§9) Cells were collected and fixed in 70% ethanol at 6, 12, 24, 48, 72, and 96 h post-irradiation and stored at −20°C. For cell cycle analyses, 6, 12, 24, and 48 h samples were rehydrated and washed twice with PBS and stained with DAPI (Sigma Aldrich Sweden, Stockholm, Sweden) using 1 μg/ml for 30 min. 24, 48, 72, and 96 h samples were stained with caspase-3 and Noxa (ab13847 (1:500) and ab13654 (1:1,000), AbCam, Cambridge, UK) overnight at 4°C, followed by incubation with fluorescent labeled secondary antibodies for 90 min (ab 1:400) at room temperature. Analyses were performed using a BD LSR Fortessa flow cytometer (Becton Dickinson Biosciences, San Jose, USA). Data analyses for cleaved caspase-3 and Noxa were performed with BD FACSDiVa (Becton Dickinson Biosciences, San Jose, USA), while cell cycle analyses of exclusively viable cells were performed using FlowJo (Becton, Dickinson Biosciences, San Jose, USA). Coefficient of variation (CV) values, were below seven for all samples.

Noxa [4] = test: Flow cytometry Noxa expression, HCT116; format: cell-based
Procedure: as §2, §9

wt p53 tumors = conditions: mice, PM2 combined with radiotherapy; cited from earlier work
p53^−/− tumors = conditions: mice, PM2 combined with radiotherapy; cited from earlier work
[5] = 0–20 μM PM2, 0 Gy, wild-type p53, HPV negative, n = 6
[6] = 20 μM PM2, 0 Gy, compared to untreated controls

CC(=O)N[C@H](C(=O)N[C@@H](CO)C(=O)N[C@@H](Cc1ccccc1)C(=O)N[C@]1(C)CCCCCCC=CCCC[C@@](C)(C(N)=O)NC(=O)[C@H](CC(C)C)NC(=O)[C@H](CC(C)C)NC(=O)[C@H](C)NC(=O)[C@H](Cc2c[nH]c3ccccc23)NC(=O)[C@H](Cc2ccc(O)cc2)NC(=O)[C@H](CCC(=O)O)NC1=O)[C@@H](C)O [PM2]
PM2 effect (UM-SCC-74B; [5]): decreased significantly the viability and Yes | average viability reduction (UM-SCC-74B; [6]): 90% | IC50 (UM-SCC-74B; PM2 alone (0 Gy), 4–5 days, n = 6): 17 µM | lowest PM2 dose with significant decrease of viability (UM-SCC-74B; PM2 alone, compared with ~10 μM for HCT116 and UM-SCC-74A): slightly higher dose | lowest PM2 dose with significant drop in viability of combination versus PM2-monotherapy (UM-SCC-74B; PM2 with 2 Gy EBRT): 10 µM | Significant effect of combination (UM-SCC-74B; PM2 with 2 Gy EBRT, n = 6): most pronounced sensitivity and Yes | PM2 effect (HCT116; [5]): decreased significantly the viability and Yes | average viability reduction (HCT116; [6]): 75% | IC50 (HCT116; PM2 added 3 h after 2 Gy EBRT, normalized to 2 Gy, 0 μM PM2, n = 6, read-out: IC50 of the combination treatment): 12 µM | lowest PM2 dose with significant decrease of viability (HCT116; PM2 alone): ~ 10 μM | IC50 (HCT116; PM2 alone (0 Gy), 4–5 days, n = 6, read-out: IC50 (cell viability)): 14 µM | Significant effect of combination (HCT116; PM2 with 2 Gy EBRT, n = 6): Yes | PM2 effect (H314; 0–20 μM PM2, 0 Gy, two p53 mutations, HPV negative): did not affect and No | Significant effect of combination (H314; PM2 with 2 Gy EBRT): No | PM2 effect (UT-SCC-45; 0–20 μM PM2, 0 Gy, wild-type p53 (exon 4–8), HPV positive): unresponsive and No response and No | Significant effect of combination (UT-SCC-45; PM2 with 2 Gy EBRT): unresponsive and No response and No | p53 expression (p53 [1]; 20 μM PM2, 24 h): increased expression of p53 | p53 expression, combination versus PM2 alone (p53 [1]; 2 Gy + 20 μM PM2, 24 h): significant increase; also recorded: further increased wt p53 levels | increase in wt p53 levels following combination therapy (p53 [1]; 2 Gy + 20 μM PM2, 24 h, normalized to controls): ~5 fold | p53 expression (p53 [2]; 20 μM PM2, 24 h): increased expression of p53 | p53 expression, combination versus PM2 alone (p53 [2]; 2 Gy + 20 μM PM2, 24 h): significant increase; also recorded: further increased wt p53 levels | increase in cleaved caspase-3 levels (cleaved caspase-3; 20 μM PM2, 96 h (representative blots), normalized to controls, n ≥ 3): three-fold | cleaved caspase-3 expression (cleaved caspase-3; 20 μM PM2-treated samples, n ≥ 3): increase in expression | cleaved caspase-3 expression, combination (cleaved caspase-3; 2 Gy + 20 μM PM2, n ≥ 3): predominant | Noxa expression (Noxa [3]): distinct increases | Noxa expression (Noxa [4]; 20 μM PM2, 72 h): distinct increases | Noxa increase, combination compared to PM2 therapy alone (Noxa [4]; 2 Gy + 20 μM PM2, p ≤ 0.01, n ≥ 3): 4 fold | prolongation of median survival (wt p53 tumors): 50% | effects on p53^−/− tumors (p53^−/− tumors): negligible
